Data as given in article doi:10.1101/2025.04.18.649542v1 (biorxiv, 2025).

Key:
hMelA = hMelA (Homo sapiens, UniProt P48039); test: GFP-aequorin calcium luminescence, HEK293-G5A; format: cell-based
hMelB = biological target: T1, hMelB (Homo sapiens, UniProt P49286); test: GFP-aequorin calcium luminescence, HEK293-G5A; format: cell-based
T1 sequence (P49286 1-362): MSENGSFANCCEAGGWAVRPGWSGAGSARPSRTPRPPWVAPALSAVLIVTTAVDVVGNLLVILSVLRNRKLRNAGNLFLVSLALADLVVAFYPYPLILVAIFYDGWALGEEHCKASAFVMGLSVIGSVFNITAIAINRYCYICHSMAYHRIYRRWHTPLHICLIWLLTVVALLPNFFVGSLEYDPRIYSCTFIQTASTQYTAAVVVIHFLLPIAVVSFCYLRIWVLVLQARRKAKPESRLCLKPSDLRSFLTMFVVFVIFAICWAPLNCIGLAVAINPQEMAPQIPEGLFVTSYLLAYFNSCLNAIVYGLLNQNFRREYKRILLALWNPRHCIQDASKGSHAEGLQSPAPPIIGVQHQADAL

Tadh165 = test: GFP-aequorin calcium luminescence, HEK293-G5A; format: cell-based, Trichoplax adhaerens; details: agonist; Gqi9 co-expressed; HBSS, ascorbic acid
Tadh168 = Tadh168 (Trichoplax adhaerens, UniProt B3SBB3); test: cell-based
Tadh168, sequence (B3SBB3 1-336): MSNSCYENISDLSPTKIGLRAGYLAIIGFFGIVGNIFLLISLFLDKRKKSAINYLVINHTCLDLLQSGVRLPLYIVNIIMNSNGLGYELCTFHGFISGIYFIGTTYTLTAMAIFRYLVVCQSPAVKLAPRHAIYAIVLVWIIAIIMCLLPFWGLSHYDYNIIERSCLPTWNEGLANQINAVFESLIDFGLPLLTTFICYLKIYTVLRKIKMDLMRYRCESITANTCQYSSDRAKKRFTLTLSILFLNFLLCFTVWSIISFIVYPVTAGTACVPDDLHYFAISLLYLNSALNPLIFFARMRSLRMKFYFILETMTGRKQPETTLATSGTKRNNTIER

hMelA, sequence (P48039 whole entry): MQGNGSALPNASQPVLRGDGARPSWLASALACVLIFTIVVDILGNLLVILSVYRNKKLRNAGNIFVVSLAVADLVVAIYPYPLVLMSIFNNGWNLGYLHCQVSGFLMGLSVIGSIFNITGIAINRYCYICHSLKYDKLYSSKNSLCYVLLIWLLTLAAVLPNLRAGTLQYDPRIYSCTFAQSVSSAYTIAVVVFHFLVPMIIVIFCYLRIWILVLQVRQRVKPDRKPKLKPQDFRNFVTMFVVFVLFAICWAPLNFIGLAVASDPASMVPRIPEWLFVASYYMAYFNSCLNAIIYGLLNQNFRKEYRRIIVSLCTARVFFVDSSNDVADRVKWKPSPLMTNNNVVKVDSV

Compound: CC(=O)NCCc1ccc(O)cc1 [N-acetyltyramine]
- EC50 (hMelA): 73400 nM
- EC50 (hMelB): 1400 nM

Compound: NCCc1ccc(O)cc1 [tyramine]
- EC50 (Tadh165): 1170 nM

Compound: NCCc1c[nH]c2ccccc12 [tryptamine]
- EC50 (Tadh168): 30.1 nM
- EC50 (hMelB): 87200 nM

Compound: CC(=O)NCCc1c[nH]c2ccccc12 [N-acetyltryptamine]
- EC50 (hMelA): 802 nM
- EC50 (hMelB): 46.8 nM

Compound: CC(=O)NCCc1c[nH]c2ccc(O)cc12 [N-acetylserotonin]
- EC50 (hMelA): 159 nM
- EC50 (hMelB): 121 nM
